The target in this assay is GL3 luciferase derived from P. pyralis (Photinus pyralis, UniProt P08659, K549A/L550V/N119G/N50D/S548I). The class given is biochemical. Conditions: read-out: Km for ATP; 0.1 M Tris-HCl pH 8.0; enzyme solution with 1 mM D-luciferin, 8 mM MgSO4.

This passage reports Km results from US9234186B2, “Star-worm luciferase” (OLYMPUS CORPORATION, priority 2011, dated 2016).

Molecules are shown by their SMILES.

Chain of GL3 luciferase derived from P. pyralis (P08659 whole entry N50D/N119G/S548I/K549A/L550V): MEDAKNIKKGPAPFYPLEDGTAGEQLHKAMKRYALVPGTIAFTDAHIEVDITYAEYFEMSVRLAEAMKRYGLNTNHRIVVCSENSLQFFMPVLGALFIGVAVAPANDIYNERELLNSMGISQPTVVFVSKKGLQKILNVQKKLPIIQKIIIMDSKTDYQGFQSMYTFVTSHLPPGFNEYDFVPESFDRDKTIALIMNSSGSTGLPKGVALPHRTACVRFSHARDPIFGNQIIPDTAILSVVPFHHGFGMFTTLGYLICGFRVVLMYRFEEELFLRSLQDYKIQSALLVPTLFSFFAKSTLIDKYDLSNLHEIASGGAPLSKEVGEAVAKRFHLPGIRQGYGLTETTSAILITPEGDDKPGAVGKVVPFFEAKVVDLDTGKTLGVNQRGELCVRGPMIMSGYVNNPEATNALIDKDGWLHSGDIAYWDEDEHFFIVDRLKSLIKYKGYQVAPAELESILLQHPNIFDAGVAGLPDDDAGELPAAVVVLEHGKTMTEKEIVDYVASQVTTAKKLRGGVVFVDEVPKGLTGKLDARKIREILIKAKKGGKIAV

Take `Nc1ncnc2c1ncn2[C@@H]1O[C@H](COP(=O)(O)OP(=O)(O)OP(=O)(O)O)[C@@H](O)[C@H]1O` [ATP, Adenosine triphosphate]: the Michaelis constant (Km) turned out to be 64.3 µM.
